{"source": "patent US6610471B1", "about": "“Methods and compositions to investigate infection by hepatitis B virus and agents to prevent and treat the infection” (priority 1998, dated 2003)", "origin": "cited, not measured here", "tested_on": "chronic HBV infection", "conditions": "patients receiving interferon-α treatment, long-term studies; cited from earlier work"}
{"substance": "interferon-α", "values": [{"measurement": "patients with loss of circulating HBV antigens and improved survival rate", "value": "about 30 % of patients"}]}
